Results taken from patent US9416141B2 (University of Washington through its Center for …, priority 2012, dated 2016).
pEC50: −log10 of the molar value. Counter-ions that a name gives are not always drawn.

Test system: hair cells
Assay: Hair cell toxicity assay in zebrafish (neomycin-induced hair cell death, DASPEI staining of neuromasts)
Assay type: in vivo
Details: Danio rerio; for Emax at 2.8 µM: maximum observed @ 2.8 μM test compound; for pEC50: zebrafish larvae 5-7 dpf, 1 h pre-treatment, then 200 micromolar neomycin + test compound 30 min, read-out: HC50 (concentration that would produce 50% hair cell survival); for Emax at 8.3 µM: maximum observed @ 8.3 μM test compound; for Emax at 25 µM: maximum observed @ 25 μM test compound
Experimental: Zebrafish are bred and newly fertilized embryos are collected the week prior and raised at 28.5° C. in petri dishes containing embryo medium. Newly hatched free-swimming larvae are fed paramecium and dry fish food at 4 days post fertilization (dpf) with lights on. For treatment, fish 5-7 dpf are transferred to cell culture baskets and place within a well of a 6-well plate containing 7 milliliters of 1× embryo medium. Typically, tests are done with ten fish per basket but work well with up to 50 fish. All treatment and wash volumes are 7 milliliters. • 1. Fish are pre-treated with test compound for 1 hour. […] Treat with 200 micromolar neomycin (neomycin sulfate, Sigma, St. Louis, Mo., catalog #N1142)+test compound for 30 minutes. • 3. Rinse fish briefly 4 times in embryo medium and add 700 μl of 0.05% DASPEI (2-{4-(dimethylamino)styryl}-N-ethylpyridinium iodide, Molecular Probes, Eugene, Oreg.) and allowed to stain for 15 minutes. • 4. Rinse twice in embryo medium and add 350 μl MS222 (0.55 ug/ml final concentration, 3-aminobenzoic acid ethyl ester, methansulfoneate salt, Sigma, St. Louis, Mo.) to anesthetize. • 5. View with epifluorescence dissecting microscope equipped with a DAPSEI filter set (excitation […], Chroma Technologies, Brattleboro, Vt.). For assessment of initial dose response curves, fish are transferred to wide depression slide with wide-bore pipette. The DASPEI staining of ten neuromasts (SO1, SO2, IO1, IO2, IO3, IO4, M2, MI1, MI2 and O2) on one side of an animal are evaluated. Each neuromast is scored for presence of DASPEI staining (score=2), reduced DASPEI staining (score=1) or absence of DASPEI staining (score=0). Total scores for an animal are tabulated, to give a composite score that can range from 0 to 20. Average scores and standard deviations are calculated for animals in each treatment group. Scores are normalized to control group (vehicle only, no drug, no neomycin) and expressed as % hair cell survival. HCmax is the maximum protection (hair cell survival) observed. • 6. If at least 50% hair cells survive, the HC50 (concentration that would produce 50% hair cell survival) is calculated as a linear extrapolation from the nearest concentrations of protective drug that produce hair cell survival below and above 50%. If less than 50% hair cells survive, the HC50 is not determined. 1× embryo media (standard lab EM): • 1 mM MgSO4, • 0.15 mM KH2PO4, • 0.05 mM Na2HPO4, • 1 mM CaCl2, • 0.5 mM KCl • 15 mM NaCl • 0.7 mM NaHCO3

[1] = 200 micromolar neomycin, read-out: Max HC Protection (HCmax, % hair cell survival)

Compound | Emax at 2.8 µM [1] [%] | pEC50 | Emax at 25 µM [1] [%] | other results
CCOC(=O)CCC[N+]1(C)CCc2c(sc(NC(=O)Nc3ccc(Cl)cc3)c2C(N)=O)C1 (centres unmarked) [Example 161, 3-Carbamoyl-2-[3-(4-chlorophenyl)ureido]-6-(4-ethoxy-4-oxobutyl)-6-methyl-4,5,6,7-tetrahydrothieno[2,3-c]pyridin-6-ium iodide] | 87 | > 6.00 |  | 
C[N+]1(CC2CCC2)CCc2c(sc(NC(=O)Nc3ccc4ccccc4c3)c2C(N)=O)C1 (centres unmarked) [Example 176, 3-Carbamoyl-6-(cyclobutylmethyl)-6-methyl-2-[3-(naphthalen-2-yl)ureido]-4,5,6,7-tetrahydrothieno[2,3-c]pyridin-6-ium iodide] |  | > 6.00 |  | Emax at 8.3 µM [1]: 100%
C[N+]1(C2CCOCC2)CCc2c(sc(NC(=O)Nc3ccc(Cl)cc3)c2C(N)=O)C1 (centres unmarked) [Example 143, 3-Carbamoyl-2-[3-(4-chlorophenyl)ureido]-6-methyl-6-(tetrahydro-2H-pyran-4-yl)-4,5,6,7-tetrahydrothieno[2,3-c]pyridin-6-ium iodide] |  | 5.00 to 6.00 | 96 | 
CCOC(=O)CCN1CCc2c(sc(NC(=O)Nc3ccc(Cl)cc3)c2C(N)=O)C1 [Example 56, Ethyl 3-{3-carbamoyl-2-[3-(4-chlorophenyl)ureido]-4,5-dihydrothieno[2,3-c]pyridin-6(7H)-yl}propanoate hydrochloride] | 48 |  |  | 
CCN1CCc2c(sc(NC(=O)Nc3ccc(C(F)(F)F)cc3)c2C(N)=O)C1 [Example 221, 6-ethyl-2-({[4-(trifluoromethyl)phenyl]carbamoyl}amino)-4H,5H,6H,7H-thieno[2,3-c]pyridine-3-carboxamide] |  | 5.00 to 6.00 | 68 | 
CC(C)CN1CCc2c(sc(NC(=O)Nc3ccc4ccccc4c3)c2C(N)=O)C1 [Example 34, 6-Isobutyl-2-[3-(naphthalen-2-yl)ureido]-4,5,6,7-tetrahydrothieno[2,3-c]pyridine-3-carboxamide hydrochloride] |  | 5.00 to 6.00 | 87 | 
CCN1CCc2c(sc(NC=O)c2C(N)=O)C1 [Example 108, 6-ethyl-2-formamido-4,5,6,7-tetrahydrothieno[2,3-c]pyridine-3-carboxamide hydrochloride] |  |  |  | Emax at 0.9 µM (maximum observed @ 0.9 μM test compound, 200 micromolar neomycin, read-out: Max HC Protection (HCmax, % hair cell survival)): 13%
CCN1CCc2c(sc(NC(=O)Nc3ccc(Cl)cc3)c2C(=O)NCCN(C)C)C1 [Example 99, 2-[3-(4-Chlorophenyl)ureido]-N-[2-(dimethylamino)ethyl]-6-ethyl-4,5,6,7-tetrahydrothieno[2,3-c]pyridine-3-carboxamide dihydrochloride] | 18 |  |  | 
CC(C)N1CCc2c(sc(NC(=O)Nc3ccc(Cl)cc3)c2C(N)=O)C1 [Example 2, 2-[3-(4-Chlorophenyl)ureido]-6-isopropyl-4,5,6,7-tetrahydrothieno[2,3-c]pyridine-3-carboxamide hydrochloride] |  | 5.00 to 6.00 | 84 | 
CCN1CCc2c(sc(NC(=O)NCc3ccc(Cl)cc3)c2C(N)=O)C1 [Example 76, 2-[3-(4-Chlorobenzyl)ureido]-6-ethyl-4,5,6,7-tetrahydrothieno[2,3-c]pyridine-3-carboxamide hydrochloride] |  |  | 40 | 
CCN1CCc2c(sc(NC(N)=O)c2C(N)=O)C1 [Example 107, 6-ethyl-2-ureido-4,5,6,7-tetrahydrothieno[2,3-c]pyridine-3-carboxamide hydrochloride] | 36 |  |  | 
CC(C1CCC1)N1CCc2c(sc(NC(=O)Nc3ccc(Cl)cc3)c2C(N)=O)C1 (racemic) [Example 47, (+/−)-2-[3-(4-chlorophenyl)ureido]-6-(1-cyclobutylethyl)-4,5,6,7-tetrahydrothieno[2,3-c]pyridine-3-carboxamide hydrochloride] | 73 | > 6.00 |  | 
CCN1CCc2c(sc(NC(=O)Nc3ccc(C)c(Cl)c3)c2C(N)=O)C1 [Example 83, 2-[3-(3-Chloro-4-methylphenyl)ureido]-6-ethyl-4,5,6,7-tetrahydrothieno[2,3-c]pyridine-3-carboxamide hydrochloride] |  | 5.00 to 6.00 | 63 | 
CCN1CCc2c(sc(NC(=O)Nc3cccc4nsnc34)c2C(N)=O)C1 [Example 80, 2-[3-(Benzo[c][1,2,5]thiadiazol-4-yl)ureido]-6-ethyl-4,5,6,7-tetrahydrothieno[2,3-c]pyridine-3-carboxamide hydrochloride] |  |  |  | Emax at 8.3 µM [1]: 36%
CCN1CCc2c(sc(NC(=O)Nc3ccc(C(=O)OC(C)(C)C)cc3)c2C(N)=O)C1 [Example 29, tert-Butyl 4-[3-(3-carbamoyl-6-ethyl-4,5,6,7-tetrahydrothieno[2,3-c]pyridin-2-yl)ureido]benzoate] |  | 5.00 to 6.00 | 75 | 
CC(C)NC(=O)CCC[N+]1(C)CCc2c(sc(NC(=O)Nc3ccc(Cl)cc3)c2C(N)=O)C1 (centres unmarked) [Example 166, 3-Carbamoyl-2-[3-(4-chlorophenyl)ureido]-6-[4-(isopropylamino)-4-oxobutyl]-6-methyl-4,5,6,7-tetrahydrothieno[2,3-c]pyridin-6-ium trifluoroacetate] | 63 | 5.00 to 6.00 |  | 
CC[N+]1(C)CCc2c(sc(NC(=O)Nc3ccc(C(=O)c4ccccc4)cc3)c2C(N)=O)C1 (centres unmarked) [Example 168, 2-[3-(4-Benzoylphenyl)ureido]-3-carbamoyl-6-ethyl-6-methyl-4,5,6,7-tetrahydrothieno[2,3-c]pyridin-6-ium iodide] | 20 |  |  | 
C[N+]1(C2CCc3c(sc(NC(=O)Nc4ccc(Cl)cc4)c3C(N)=O)C2)CCC1 (centres unmarked) [Example 170, 1-{3-Carbamoyl-2-[3-(4-chlorophenyl)ureido]-4,5,6,7-tetrahydrobenzo[b]thiophen-6-yl}-1-methylazetidin-1-ium iodide] |  | 5.00 to 6.00 | 85 | 
C[N+]1(CC2CCC2)CCc2c(sc(NC(=O)Nc3ccc(Cl)cc3)c2C(N)=O)C1 (centres unmarked) [Example 145, 3-Carbamoyl-2-[3-(4-chlorophenyl)ureido]-6-(cyclobutylmethyl)-6-methyl-4,5,6,7-tetrahydrothieno[2,3-c]pyridin-6-ium iodide] |  | > 6.00 |  | Emax at 8.3 µM [1]: 95%
NC(=O)c1c(NC(=O)Nc2ccc(Cl)cc2)sc2c1CCN(CCCC(=O)O)C2 [Example 13, 4-{3-Carbamoyl-2-[3-(4-chlorophenyl)ureido]-4,5-dihydrothieno[2,3-c]pyridin-6(7H)-yl}butanoic acid hydrochloride] |  |  |  | Emax at 8.3 µM [1]: 17%
CC(C)(C)OC(=O)CCCCCN1CCc2c(sc(NC(=O)Nc3ccc(Cl)cc3)c2C(N)=O)C1 [Example 18, tert-Butyl 6-{3-carbamoyl-2-[3-(4-chlorophenyl)ureido]-4,5-dihydrothieno[2,3-c]pyridin-6(7H)-yl}hexanoate] | 64 | > 6.00 |  | 
CCN1CCc2c(sc(NC(=O)Nc3ccc(Cc4ccccc4)cc3)c2C(N)=O)C1 [Example 226, 2-{[(4-benzylphenyl)carbamoyl]amino}-6-ethyl-4H,5H,6H,7H-thieno[2,3-c]pyridine-3-carboxamide] |  | 5.00 to 6.00 |  | Emax at 8.3 µM [1]: 68%
CC(C)C[N+]1(C)CCc2c(sc(NC(=O)Nc3ccc4ccccc4c3)c2C(N)=O)C1 (centres unmarked) [Example 175, 3-Carbamoyl-6-isobutyl-6-methyl-2-[3-(naphthalen-2-yl)ureido]-4,5,6,7-tetrahydrothieno[2,3-c]pyridin-6-ium iodide] |  | > 6.00 | 111 | 
NC(=O)c1c(NC(=O)Nc2ccc(Cl)cc2)sc2c1CCN(CCN1CCOCC1)C2 [Example 46, 2-[3-(4-Chlorophenyl)ureido]-6-(2-morpholinoethyl)-4,5,6,7-tetrahydrothieno[2,3-c]pyridine-3-carboxamide trifluoroacetate] |  | < 5.00 | 79 | 
CCN1CCc2c(sc(NC(=O)Nc3cncc4ccccc34)c2C(N)=O)C1 [Example 81, 6-Ethyl-2-[3-(isoquinolin-4-yl)ureido]-4,5,6,7-tetrahydrothieno[2,3-c]pyridine-3-carboxamide dihydrochloride] |  |  |  | Emax at 8.3 µM [1]: 32%
